This is an account of results in patent US5157039A, “2-quinolinyl methoxy compounds, medical uses and intermediates therefor” (Leo Pharmaceutical Products Ltd., priority 1985, dated 1992).

Read-outs that look alike come from different tables or passages of the source.

Experiment [1] relates to leukotriene D4-induced contraction of guinea-pig ileum strips. Description: Leukotriene D4-induced contraction of isolated guinea-pig ileum strips (leukotriene antagonism). The following applies: leukotriene D4 10^-9 M; atropine and indomethacin present. The text has this:
Antagonism of leukotriene mediated effects at the receptor level, in addition to inhibition of leukotriene synthesis, is an additional mode of action of some of the present compounds. Obviously, this dual mechanism is of potentially great interest in preventing leukotriene mediated reactions.
Leukotriene antagonists may be identified by observing the contractions elicited in preparations of guinea-pig ileum strips suspended in physiological buffers by addition of pure leukotriene D4. The ileum strips are connected to an isotonic transducer, and the contractions are continuously recorded on a multichannel recorder.
Before addition of leukotriene D4, atropine and indomethacin are added to the buffer in order to block any cholinergic or prostaglandin-mediated contractile effects. Test compounds to be studied with respect to leukotriene antagonism are dissolved in dimethylsulphoxide (DMSO) and added to the organ bath 2 minutes prior to addition of leukotriene D4 at 10^-9 M (final concentration), the final concentration of DMSO being 0.1%, a concentration which can be shown not to affect the ileum response to leukotriene D4. The test compounds may be added at various concentrations, often beginning at 10^-6 M and then decreasing the concentration in case of antagonism.

Another experiment has as its system IL-1 mRNA in PBMC. In words: IL-1 mRNA production in LPS-stimulated PBMC. It counts as cell-based. The text has this:
(§1) These effects were obtained using submicromolar concentrations of the two compounds.

In experiment [2] the test system is IL-1 release from inflammatory cells. In words: IL-1 release from inflammatory cells. It counts as cell-based.
Description: as §1

The test system of a further experiment is gene expression of IL-8. Description: Gene expression of IL-8 in endothelial cells, fibroblasts and keratinocytes stimulated by LPS or IL-1. It is filed as cell-based.
Description: as §1

Experiment [3] deals with IL-8 mRNA in peripheral blood mononuclear cells (PBMC). Description: IL-8 mRNA synthesis in LPS-stimulated peripheral blood mononuclear cells (cDNA probe). It is filed as cell-based. The following applies: submicromolar concentrations.
Description: as §1

The next experiment has as its system rat peritoneal mast cell. In words: Rat peritoneal mast cell histamine release. It is filed as cell-based. An excerpt: Products formed by the enzyme responsible for the first step in leukotriene synthesis, 5-lipoxygenase, which is probably the target enzyme of compounds of the present invention, play a role as mediators of mast cell degranulation. One of the effects of mast cell degranulation is the release of histamine. Thus, 5-lipoxygenase inhibitors may suppress histamine release from mast cells.
In order to investigate this possibility, cells obtained from washings of the peritoneal cavity of rats, were studied. These peritoneal washings contain mainly macrophages and mast cells. The mast cells were passively sensitized with IgE-antibodies to ovalbumin, and then challenged with the antigen, ovalbumin, to induce histamine release. Alternatively, the unsensitized mast cells were exposed to an […], compound 48/80*, which induces histamine release independently of immunologic mechanisms. Histamine released to the medium after degranulation of the peritoneal mast cells was measured by a fluorometric method.
* (the condensation product of N-methyl-p-methoxyphenethylamine with formaldehyde)

A further experiment relates to 5-lipoxygenase. In words: 5-lipoxygenase activity in vitro in A 23187-stimulated rat peritoneal cells (radiolabelled arachidonic acid metabolites). It counts as cell-based. Conditions: final concentrations from 10^-6 M and above. The protocol: The biological activity of the present compounds was determined both in vitro and in vivo. The following method was used to assay 5-lipoxygenase activity in vitro: Rat peritoneal cells were harvested by i.p. injection of 10 ml Hank's balanced salt solution (GIBCO), cat. No. 4025, U.S.A.) containing 12.5 U/ml sodium heparin (Leo, Denmark) in anaesthesized rats. The resulting cell suspension, which mainly contained macrophages, was transferred to a test tube and washed twice by centrifugation (200 g, 10 min.) and resuspended in Hank's balanced salt solution containing 0.5% bovine serum albumin (Sigma Chem. Co., U.S.A.). The cells from 6 rats were finally resuspended in Hank's balanced salt solution containing 5 μCi (1-^14 C) arachidonic acid (The Radiochemical Centre, Amersham, U.K.) and incubated for 90 minutes at 30° C. […] An aliquot of the supernatant was counted by liquid scintillation spectrometry in order to calculate the total radioactive release induced by A 23187 in presence of drugs. […] Radioactive spots were detected by autoradiography (AGFA-GEVAERT, Osray-RPI X-ray film, Belgium), and changes induced by drugs in the metabolic pattern of arachidonic acid were quantified by a laser densitometer (LKB, Ultroscan™ 2202, Bromma, Sweden) in combination with an integrating computer (SP 4100, SpectraPhysics, San Jose, Calif., U.S.A.). […]

Another experiment deals with release of leukotrienes. In words: A 23187-induced leukotriene release in the peritoneal cavity of rats in vivo. Also on record: species or system rat. Conditions: administered prior to intraperitoneal A 23187. The procedure:
Two in vivo methods were used to assess the effect of either oral or parenteral administration of the compounds to experimental animals on the release of leukotrienes. In the first method, calcium ionophore A 23187 was injected into the peritoneal cavity of adrenalectomized and anaestesized rats. 5 minutes later the cavity was washed, and the leukotrienes were extracted with ethanol and redissolved in water or buffer. The amount of leukotriene D4 released in response to A 23187 was determined by bioassay, using the contraction of an isolated guinea-pig ileum-strip as indicator. Leukotriene C4 and B4 were measured by commercially available radioimmunoassays (New England Nuclear, Dreieich, West Germany, and The Radiochemical Centre, Amersham, U. K., respectively).

The test system of another experiment is cyclooxygenase. In words: Synthesis of cyclooxygenase products in A 23187-stimulated rat peritoneal cells (same assay). It is filed as cell-based. Conditions: final concentrations from 10^-6 M and above. The protocol: The biological activity of the present compounds was determined both in vitro and in vivo. The following method was used to assay 5-lipoxygenase activity in vitro: Rat peritoneal cells were harvested by i.p. injection of 10 ml Hank's balanced salt solution (GIBCO), cat. No. 4025, U.S.A.) containing 12.5 U/ml sodium heparin (Leo, Denmark) in anaesthesized rats. The resulting cell suspension, which mainly contained macrophages, was transferred to a test tube and washed twice by centrifugation (200 g, 10 min.) and resuspended in Hank's balanced salt solution containing 0.5% bovine serum albumin (Sigma Chem. Co., U.S.A.). The cells from 6 rats were finally resuspended in Hank's balanced salt solution containing 5 μCi (1-^14 C) arachidonic acid (The Radiochemical Centre, Amersham, U.K.) and incubated for 90 minutes at 30° C. This caused labelling of cell membrane phospholipids as radioactive arachidonic acid was incorporated in the 2-position of the glycerol moiety. Excess arachidonic acid was then removed by washing the cells twice as described above. The cells were finally resuspended in the same solution at 10^7 cells/ml. 475 μl of the cell suspension was preincubated at 37° C. for 5 minutes with either 5 μl DMSO (control tube), or 5 μl of a drug solution in DMSO. Then 20 μl of a mixture of equal volumes of the calcium ionophore A 23187, 10^-4 M in ethanol (Calbiochem, U.S.A.), and 0.5M CaCl2 in water was added. The final concentration of A 23187 was thus 2×10^-6 M, transferred to an ice-bath and centrifugated for 10 minutes at 3,000 g (4° C.). An aliquot of the supernatant was counted by liquid scintillation spectrometry in order to calculate the total radioactive release induced by A 23187 in presence of drugs. […] Radioactive spots were detected by autoradiography (AGFA-GEVAERT, Osray-RPI X-ray film, Belgium), and changes induced by drugs in the metabolic pattern of arachidonic acid were quantified by a laser densitometer (LKB, Ultroscan™ 2202, Bromma, Sweden) in combination with an integrating computer (SP 4100, SpectraPhysics, San Jose, Calif., U.S.A.). […]

The subject of experiment [4] is asthmatic reaction (airway resistance) in guinea-pigs. In words: Asthmatic reaction in ovalbumin-hypersensitive guinea-pigs (Konzett-Rossler). It is filed as in vivo, guinea-pig. The following applies: ovalbumin i.v. challenge; mepyramine, indomethacin and propranolol pretreated. An excerpt:
The other method was used to measure a physiological consequence of leukotriene release in the lungs, an asthmatic attack. Guinea-pigs hypersensitive to ovalbumin were anaestesized and mechanically ventilated with a constant airvolumen ad modum Konzett-Rossler. The animals were pretreated with mepyramine, indomethacin and propranolol to avoid interference with endogenous production of histamine, prostaglandins and β-adrenergic mechanisms, respectively. They were then challenged with an intravenous injection of ovalbumin, and the increase in airway resistance was measured by the respiratory overflow.

[5] abbreviates: antigen ovalbumin, passively sensitized mast cells, read-out: Inhibition (%) of histamine release induced by Antigen.
The mark [6] stands for this setting: compound 48/80, unsensitized mast cells, read-out: Inhibition (%) of histamine release induced by Cp. 48/80.

On to `CC(=O)Nc1cccc(OCc2ccc3ccccc3n2)c1` [11 (part A), 3-(2'-Quinolylmethoxy)acetanilide], for which the “concentration at which leukotriene D4-induced contraction is inhibited” value in [1] is recorded as “submicromolar range”.
Still for that read-out and setting: next, `CNc1cccc(OCc2ccc3ccccc3n2)c1` [11 (part C), 3-(2'-Quinolylmethoxy)-N-methylaniline]: “submicromolar range”.
Take `O=C(O)c1ccc(CN(Cc2cccc(F)c2)c2ccc(OCc3ccc4ccccc4n3)cc2)cc1` [ETH615, 4-(2'-quinolylmethoxy)-N-(3"-fluorobenzyl)-N-(4'"-carboxybenzyl)aniline]: the “IL-1 mRNA production” value in the experiment on IL-1 mRNA in PBMC is given as “inhibits IL-1 mRNA production”. Besides, the IL-1 release result in experiment [2] is on record as “suppression of IL-1 release”. Further, the “gene expression of IL-8 in endothelial cells” value in the experiment on gene expression of IL-8 (endothelial cells stimulated by LPS or IL-1) is given as “suppress the gene expression of IL-8”. Besides, in the experiment on gene expression of IL-8 (fibroblasts stimulated by LPS or IL-1), the “gene expression of IL-8 in fibroblasts” value is reported as “suppress the gene expression of IL-8”. Further, the “gene expression of IL-8 in keratinocytes” value in the experiment with gene expression of IL-8 (keratinocytes stimulated by LPS or IL-1) was “suppress the gene expression of IL-8”. Besides, the “synthesis of IL-8 messenger RNA” value in [3] was “inhibit the synthesis of messenger RNA”.
In the case of `O=C(O)c1cccc(CN(Cc2ccccc2)c2ccc(OCc3ccc4ccccc4n3)cc2)c1` [ETH647], the “synthesis of IL-8 messenger RNA” value in experiment [3] is listed as “inhibit the synthesis of messenger RNA”.
Turning to `CNc1ccc(OCc2ccc3ccccc3n2)cc1` [Ex. 10, part C, 4-(2'-Quinolylmethoxy)-N-methylaniline], the inhibition at 10 µM in the experiment with rat peritoneal mast cell (setting [5]) was found to be 51%; with rat peritoneal mast cell (setting [6]), 19%.
Consider `c1ccc(CNc2ccc(OCc3ccc4ccccc4n3)cc2)cc1` [Ex. 38, 4-(2'-Quinolylmethoxy)-N-benzylaniline], for which the inhibition at 10 µM stood at 91% with rat peritoneal mast cell (setting [5]) and 85% with rat peritoneal mast cell (setting [6]).
In the case of `NCCCCCCNc1ccc(OCc2ccc3ccccc3n2)cc1` [Ex. 66, 4-(2'-Quinolylmethoxy)-N-1"-(6"-amino-n-hexyl)aniline], the figures for the inhibition at 10 µM in the experiment with rat peritoneal mast cell (setting [5]) and with rat peritoneal mast cell (setting [6]) were 100% and 65%, respectively.
The like results for `c1ccc(CNc2cccc(OCc3ccccn3)c2)cc1` [Ex. 68, 3-(2'-Pyridylmethoxy)-N-benzylaniline] were, in that order, 45% and 17%.
The like results for `CCCNc1ccc(OCc2ccccn2)cc1` [Ex. 70] were, in that order, 100% and 45%.
For `CCCN(CCC)c1ccc(OCc2ccc3ccccc3n2)cc1` [Ex. 77, 4-(2'-Quinolylmethoxy)-N,N-di-n-propylaniline], in that order: 100% and 92%.
On to `Clc1cc(OCc2ccncc2)ccc1NCc1ccccc1` [Ex. 78, part C, 2-Chloro-4-(4'-pyridylmethoxy)-N-benzylaniline], for which the inhibition at 10 µM stood at 96% in the experiment with rat peritoneal mast cell (setting [5]) and 95% with rat peritoneal mast cell (setting [6]). Besides, the “concentration at which leukotriene D4-induced contraction is inhibited” value in experiment [1] is listed as “submicromolar range”.
With `Clc1cc(NCc2ccccc2)ccc1OCc1ccncc1` [Ex. 79, part C, 3-Chloro-4-(4'-pyridylmethoxy)-N-benzylaniline], the inhibition at 10 µM in the experiment with rat peritoneal mast cell (setting [5]) was found to be 100%; with rat peritoneal mast cell (setting [6]) it was 95%.
For the compound `CN(C)c1cccc(OCc2ccc3ccccc3n2)c1` [Example 18, 3-(2'-Quinolylmethoxy)-N,N-dimethylaniline], in experiment [1], the “concentration at which leukotriene D4-induced contraction is inhibited” value is “submicromolar range”.
For `CCCCNc1ccc(OCc2ccc3ccccc3n2)cc1` [Example 22, 4-(2'-Quinolylmethoxy)-N-n-butylaniline], the inhibition at 10 µM in the experiment with rat peritoneal mast cell (setting [5]) was 100%; with rat peritoneal mast cell (setting [6]) it was 75%. Further, the “concentration at which leukotriene D4-induced contraction is inhibited” value in experiment [1] is “submicromolar range”.
For the compound `CCCCNc1cccc(OCc2ccc3ccccc3n2)c1` [Example 23, 3-(2'-Quinolylmethoxy)-N-n-butylaniline], the “concentration at which leukotriene D4-induced contraction is inhibited” value in experiment [1] was “submicromolar range”.
In the case of `c1ccc(CNc2cccc(OCc3ccc4ccccc4n3)c2)cc1` [Example 39, 3-(2'-Quinolylmethoxy)-N-benzylaniline], the inhibition at 10 µM in the experiment on rat peritoneal mast cell (setting [5]) is 100%; with rat peritoneal mast cell (setting [6]), 95%. Besides, the “concentration at which leukotriene D4-induced contraction is inhibited” value in [1] is listed as “submicromolar range”.
Regarding `CNc1ccc(OCc2cccnc2)cc1` [OT 3447, 4-(3'-Pyridylmethoxy)-N-methylaniline], in the experiment on 5-lipoxygenase, the “production of 5-HETE” value was “significant and specific decrease”; the “production of leukotriene B4” value is “significant and specific decrease”. In the experiment with release of leukotrienes, the “leukotriene B4 formation (radioimmunoassay)” value is “substantial inhibition”; the “leukotriene C4 formation (radioimmunoassay)” value was “substantial inhibition”; the “leukotriene D4 formation (bioassay, guinea-pig ileum-strip)” value is “substantial inhibition”. In addition, in the experiment with cyclooxygenase, the “synthesis of prostaglandin D2” value is “not affected”, the “synthesis of the cyclooxygenase product HHT” value was “not affected” and the “synthesis of thromboxane B2” value is given as “not affected”. For the same compound, the asthmatic reaction entry in experiment [4] is “significantly reduced”.
